Results on 13 compounds are retold here after ChEMBL document CHEMBL1201862, “PubChem BioAssay data set” (2004).

Among the test systems are COLO 205; EKVX; HCT-15; HOP-92; LOX IMVI; LXFL 529; MOLT-4; NCI-H226; OVCAR-4; SF-295; TK-10; UACC-257; UO-31; KM12; NCI-H522; SK-MEL-2; Hs-578T; MDA-MB-231; MDA-N; PC-3.
What all share (test): DTP human tumour cell line panel, 48 h

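Assay format: 96-well plates, 48-hour exposure. GI50 marks 50% less growth.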 Calls of active or inactive are those of the source. No stated cut-off is given here; in the data, active = GI50 up to about 1.1 µM and inactive = higher.

As for `Cn1cc2c(n1)c(N/N=C/c1ccccc1)nn1nnnc21`, the GI50 was > 100 µM (inactive) in the experiment on COLO 205; > 100 µM (inactive) with EKVX; > 100 µM in the experiment on HCT-15; > 100 µM (inactive) in the experiment on HOP-92; > 100 µM (inactive) with LOX IMVI; > 100 µM (inactive) in the experiment on LXFL 529. For the same compound, the GI50 in the experiment with MOLT-4, in the experiment on NCI-H226, in the experiment with OVCAR-4, with SF-295, in the experiment on TK-10 and with UACC-257 was > 100 µM (inactive) throughout. In the experiment on UO-31, the GI50 was > 100 µM (inactive).

Consider `N=C(N)N/N=C(/c1nc2ccc([N+](=O)[O-])cc2[nH]c1=O)C(O)c1ccc([N+](=O)[O-])cc1` (stereo not given), for which the GI50 was 79.8 µM (inactive) in the experiment with COLO 205; 11.5 µM with HCT-15; > 100 µM (inactive) in the experiment on HOP-92; 36.1 µM (inactive) with KM12; 38.5 µM (inactive) in the experiment on LOX IMVI; 30.8 µM (inactive) in the experiment on LXFL 529. Besides, the GI50 in the experiment with MOLT-4 was > 100 µM (inactive); in the experiment with NCI-H226, > 100 µM (inactive); in the experiment with NCI-H522, 4.54 µM (inactive); in the experiment on OVCAR-4, > 100 µM (inactive); in the experiment on SF-295, > 100 µM (inactive); in the experiment with UACC-257, > 100 µM (inactive). In the experiment on UO-31, the GI50 is 3.03 µM (inactive).

On to `COc1ccc(NCC#N)cc1`, for which the GI50 is > 100 µM (inactive) in the experiment with COLO 205; > 100 µM (inactive) with EKVX; > 100 µM with HCT-15; > 100 µM (inactive) in the experiment with HOP-92; > 100 µM (inactive) with KM12; > 100 µM (inactive) with LOX IMVI. Also, the GI50 in the experiment on LXFL 529, with MOLT-4, in the experiment on NCI-H522, with SF-295, in the experiment with SK-MEL-2 and in the experiment on TK-10 was > 100 µM (inactive) each time. Besides, the GI50 with UACC-257 and in the experiment with UO-31 was > 100 µM (inactive) each time.

As to `O=[N+]([O-])c1ccc(Cc2nc3ccccc3s2)cc1`, the GI50 in the experiment with COLO 205 was > 100 µM (inactive); in the experiment on EKVX, > 100 µM (inactive); in the experiment on HCT-15, > 100 µM; in the experiment on HOP-92, > 100 µM (inactive); with KM12, > 100 µM (inactive); in the experiment on LXFL 529 it was 61 µM (inactive). In addition, the GI50 was 75.2 µM (inactive) in the experiment with MOLT-4; > 100 µM (inactive) in the experiment with NCI-H226; 60.4 µM (inactive) in the experiment with NCI-H522; > 100 µM (inactive) in the experiment on OVCAR-4; > 100 µM (inactive) in the experiment with SF-295; > 100 µM (inactive) with SK-MEL-2. For the same compound, the GI50 in the experiment on TK-10, in the experiment with UACC-257 and in the experiment with UO-31 was > 100 µM (inactive) each time.

With `CC1(C)OC(=O)C(C#N)=C1/C=C/c1coc2ccc(Cl)cc2c1=O`, the GI50 with COLO 205 is 57.7 µM (inactive); in the experiment on EKVX, 47 µM (inactive); with HCT-15, 27.4 µM; in the experiment on KM12, 41.3 µM (inactive); in the experiment with LOX IMVI, 18.9 µM (inactive); in the experiment with LXFL 529 it was 27.9 µM (inactive). The GI50 in the experiment on MOLT-4 was 26.1 µM (inactive); in the experiment on NCI-H226 it was 29.4 µM (inactive); in the experiment on NCI-H522, 74 µM (inactive); in the experiment with OVCAR-4, 24.6 µM (inactive); in the experiment with SF-295 it was 29.8 µM (inactive); with SK-MEL-2, 22.1 µM (inactive). The GI50 in the experiment with UACC-257 was 31.3 µM (inactive); with UO-31 it was 27.1 µM (inactive).

Regarding `CC(=O)OC1[C@H]2c3cc4c(cc3CN3CCC(C[C@@H]1OC(C)=O)C23)OCO4` (stereo not given in full), the GI50 in the experiment with COLO 205 was > 75 µM (inactive); with EKVX, > 75 µM (inactive); in the experiment with HCT-15, > 75 µM; in the experiment on KM12 it was > 75 µM (inactive); with LOX IMVI, > 75 µM (inactive); in the experiment with LXFL 529, > 75 µM (inactive). The GI50 is > 75 µM (inactive) in the experiment with MOLT-4; 8.13 µM (inactive) with NCI-H226; > 75 µM (inactive) with NCI-H522; > 75 µM (inactive) with SF-295; > 75 µM (inactive) in the experiment on TK-10; > 75 µM (inactive) in the experiment on UACC-257. The GI50 in the experiment with UO-31 is > 75 µM (inactive).

Regarding `COc1cccc(NC(=O)CC(=O)N2NC(c3ccccc3)C(/N=N/c3cccc(C(=O)O)c3)C2=O)c1` (stereo not given), the GI50 in the experiment with COLO 205 is > 10 µM (inactive); in the experiment with EKVX it was > 100 µM (inactive); in the experiment on HOP-92, > 100 µM (inactive); in the experiment with KM12, 39.4 µM (inactive); with LOX IMVI it was > 100 µM (inactive); in the experiment with LXFL 529, 85.1 µM (inactive). Also, the GI50 was 86.3 µM (inactive) in the experiment with MOLT-4; > 100 µM (inactive) in the experiment with NCI-H226; > 100 µM (inactive) in the experiment on OVCAR-4; > 100 µM (inactive) in the experiment with SF-295; > 100 µM (inactive) with TK-10; > 100 µM (inactive) with UACC-257. For the same compound, in the experiment with UO-31, the GI50 was 27.5 µM (inactive).

In the case of `COC(=O)/C=C1\CCC2[C@@H](C(=O)CC3[C@]2(C)CCC[C@@]3(C)C(=O)OC)C1C` (stereo not given in full), the GI50 in the experiment on COLO 205 was 17.3 µM (inactive); in the experiment on EKVX, 27.3 µM (inactive); with HCT-15, 29.8 µM; with HOP-92, 21 µM (inactive); in the experiment with KM12, 17.1 µM (inactive); with LXFL 529, 8.73 µM (inactive). The GI50 in the experiment with MOLT-4 is 6.37 µM (inactive); in the experiment on NCI-H226, 20 µM (inactive); in the experiment with NCI-H522, 16.5 µM (inactive); with OVCAR-4 it was 22.5 µM (inactive); with SF-295 it was 25.6 µM (inactive); in the experiment with SK-MEL-2, 18.2 µM (inactive). Moreover, the figures for the GI50 with TK-10, in the experiment on UACC-257 and with UO-31 were 19.5 µM (inactive), 17.9 µM (inactive) and 21.7 µM (inactive), respectively.

Turning to `CC(=O)N1C(C(=O)NN2CCOCC2)CSC1c1ccccc1` (stereo not given), the GI50 in the experiment with COLO 205 is > 100 µM (inactive); in the experiment with EKVX, > 100 µM (inactive); in the experiment on HCT-15, > 100 µM; in the experiment with HOP-92, > 100 µM (inactive); with Hs-578T, > 100 µM (inactive); with KM12 it was > 100 µM (inactive). For the same compound, the GI50 with LOX IMVI, in the experiment with MDA-MB-231, in the experiment on MDA-N, in the experiment on MOLT-4, in the experiment with NCI-H226 and in the experiment with NCI-H522 was > 100 µM (inactive) each time. For the same compound, the GI50 with OVCAR-4, in the experiment on PC-3, with SF-295, with SK-MEL-2, in the experiment with TK-10 and in the experiment with UACC-257 was > 100 µM (inactive) in each case. For the same compound, the GI50 in the experiment on UO-31 is > 100 µM (inactive).

As to `Cn1c2ccccc2c(=NNc2cccc(C(=O)O)c2)c2ccccc21`, the GI50 with COLO 205 was 12.2 µM (inactive); with EKVX, 5.57 µM (inactive); with HCT-15, 15.3 µM; in the experiment on HOP-92, 14.8 µM (inactive); in the experiment on Hs-578T it was 17.8 µM (inactive); in the experiment with KM12, 23.3 µM (inactive). The GI50 is 5.05 µM (inactive) with LOX IMVI; 11 µM (inactive) in the experiment on MDA-MB-231; 16.1 µM (inactive) in the experiment with MDA-N; 3.97 µM (inactive) in the experiment on MOLT-4; 12.1 µM (inactive) with NCI-H226; 5.05 µM (inactive) with NCI-H522. Moreover, the GI50 is 12.4 µM (inactive) in the experiment on OVCAR-4; 4.92 µM (inactive) with PC-3; 16 µM (inactive) in the experiment on SF-295; 16.8 µM (inactive) with SK-MEL-2; 15.5 µM (inactive) in the experiment with TK-10; 28.5 µM (inactive) in the experiment with UACC-257. Moreover, the GI50 in the experiment with UO-31 is 14.3 µM (inactive).

For the compound `COc1cc2cc(C(=O)N3CC(COS(C)(=O)=O)c4ccc(NC(=O)OCc5ccccc5)cc43)[nH]c2c(OC)c1OC` (stereo not given), the GI50 was > 100 µM (inactive) with COLO 205; > 100 µM (inactive) with EKVX; > 100 µM in the experiment with HCT-15; 9.59 µM (inactive) with HOP-92; > 100 µM (inactive) in the experiment with Hs-578T; > 100 µM (inactive) in the experiment with KM12. For the same compound, the GI50 is > 100 µM (inactive) with LOX IMVI; > 100 µM (inactive) in the experiment with MDA-MB-231; > 100 µM (inactive) with MDA-N; 28.3 µM (inactive) in the experiment on MOLT-4; > 100 µM (inactive) with NCI-H226; 99.1 µM (inactive) with NCI-H522. Also, the GI50 in the experiment on OVCAR-4 was > 100 µM (inactive); in the experiment on PC-3 it was > 100 µM (inactive); in the experiment with SF-295, > 100 µM (inactive); with SK-MEL-2, 67.1 µM (inactive); in the experiment with TK-10, > 100 µM (inactive); with UACC-257, > 100 µM (inactive). Besides, the GI50 in the experiment with UO-31 is > 100 µM (inactive).

As to `CCCC(=O)Nc1cn(COC)c(C(=O)N2C[C@H]3C[C@@]34C2=CC(=O)c2[nH]cc(C)c24)n1`, the GI50 in the experiment with COLO 205 was 7.78 µM (inactive); in the experiment on EKVX, 11.2 µM (inactive); in the experiment with HCT-15 it was 11.9 µM; in the experiment with HOP-92, 8.05 µM (inactive); in the experiment with Hs-578T, 15.4 µM (inactive); with KM12 it was > 5 µM (inactive). The GI50 was 7.14 µM (inactive) in the experiment on LOX IMVI; 13.1 µM (inactive) with MDA-MB-231; 9.16 µM (inactive) in the experiment with MDA-N; 0.553 µM (active) with MOLT-4; 9.86 µM (inactive) in the experiment with NCI-H226; 1.65 µM (inactive) with NCI-H522. The GI50 in the experiment with OVCAR-4 is 9.12 µM (inactive); in the experiment with PC-3 it was 12.6 µM (inactive); in the experiment on SF-295, 7.94 µM (inactive); in the experiment on SK-MEL-2, 14 µM (inactive); in the experiment with TK-10, 10.1 µM (inactive); in the experiment on UACC-257, 8.71 µM (inactive). Further, the GI50 with UO-31 is 10.6 µM (inactive).

As for `O=C(CSc1nnc(Cc2ccccc2)o1)Nc1ccc([N+](=O)[O-])cc1`, the GI50 was > 100 µM (inactive) in the experiment with COLO 205; > 100 µM in the experiment with HCT-15; > 100 µM (inactive) in the experiment with KM12; 61.7 µM (inactive) in the experiment with LOX IMVI; 78.2 µM (inactive) with LXFL 529; 87.3 µM (inactive) in the experiment on MOLT-4. For the same compound, the GI50 is > 100 µM (inactive) with NCI-H226; 82.2 µM (inactive) in the experiment on NCI-H522; > 100 µM (inactive) with OVCAR-4; 52 µM (inactive) in the experiment on SF-295; > 100 µM (inactive) with SK-MEL-2; 62.2 µM (inactive) in the experiment with TK-10. For the same compound, the GI50 was > 100 µM (inactive) in the experiment with UACC-257 and 74.1 µM (inactive) with UO-31.

The GI50 is the concentration at which growth is held to half of that of the control.
